In ChEMBL document CHEMBL1201862, “PubChem BioAssay data set” (2004):
Activity calls are given as the source filed them.

Key:
[1] = cells; assay type: functional, cell-based
[2] = cytotoxicity dependent on PAX8, dose response, cell-based, plate reader, dry powder (AID 743049); assay type: functional
[3] = Luminescence Cell-Based Dose Response HTS to Identify Inhibitors of 5'UTR Stem-Loop Driven Prion Protein mRNA Translation in H4 Neuroglioblastoma Cells. [Related pubchem assays: 1827 (Project Summary), 1813 (Primary HTS)]; assay type: functional
[4] = luciferase reporter signal reduction – luminescence, H4-C neuroglioblastoma cells, dose response (AID 2458); assay type: functional, cell-based;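 note: H4 neuroglioblastoma cells stably carrying a luciferase reporter gene fusion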
[5] = cytotoxicity in OVCAR4 cells, dose response, cytotoxicity control for PAX8 inhibitor project, cell-based, plate reader, dry powder, SA11 (AID 743150); assay type: functional; conditions: OVCAR-4
[6] = inhibitors of firefly luciferase expression or activity, dose response, H4 neuroglioma cells, luminescence (AID 1990); assay type: functional, cell-based
[7] = test system: BJ; experiment: cells; assay type: functional, cell-based; conditions: Homo sapiens
[8] = cytotoxicity toward DRD oncogenic fibroblasts, dose response, cell-based, non-viral oncogenic, luminescence (AID 1934); assay type: functional; conditions: Homo sapiens
[9] = PAX2 cell-based inhibition, dose response, selectivity assay for PAX8 inhibitor project, plate reader, dry powder samples (AID 743048); assay type: functional;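 note: HEK293 cells carrying a WT1 promoter luciferase reporter driven by expressed Pax2; potency is for inhibition of Pax2 driven reporter signal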
[10] = IGROV1 ovarian cancer cell cytotoxicity, dose response, PAX8 inhibitor project, plate reader, dry powder samples (AID 743043); assay type: functional, cell-based; conditions: IGROV-1
[11] = cytotoxicity in COV434 cells, dose response, cytotoxicity control for PAX8 inhibitor project, cell-based, plate reader, dry powder, SA7 (AID 743145); assay type: functional
[12] = inhibitors of SNCA 5'UTR-driven translation, confirmation, luminescence, H4 neuroglioblastoma cells, dose confirmation (AID 2454); assay type: functional, cell-based;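 note: H4 neuroglioblastoma cells carrying an alpha-synuclein 5'UTR luciferase reporter; potency for inhibition of the luciferase signal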
[13] = cytotoxicity in OV-90 ovarian cancer cells, dose response, PAX8 inhibitor project, cell-based, plate reader, dry powder, SA8 (AID 743149); assay type: functional
[14] = IOSE-T80 ovarian epithelial cell cytotoxicity, dose response, cytotoxicity control for PAX8 inhibitor project, plate reader, dry powder samples (AID 743045); assay type: functional, cell-based
[15] = biological target: Paired box protein Pax-8 (Homo sapiens, UniProt Q06710); experiment: inhibitors of PAX8-driven TPO luciferase reporter, dose response, RMG-I cells, cherry-pick (AID 687027); assay type: functional, cell-based;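 note: luciferase reporter driven by Pax8 target thyroperoxidase promoter measured by SteadyGlo luminescence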
Paired box protein Pax-8, sequence (Q06710 whole entry): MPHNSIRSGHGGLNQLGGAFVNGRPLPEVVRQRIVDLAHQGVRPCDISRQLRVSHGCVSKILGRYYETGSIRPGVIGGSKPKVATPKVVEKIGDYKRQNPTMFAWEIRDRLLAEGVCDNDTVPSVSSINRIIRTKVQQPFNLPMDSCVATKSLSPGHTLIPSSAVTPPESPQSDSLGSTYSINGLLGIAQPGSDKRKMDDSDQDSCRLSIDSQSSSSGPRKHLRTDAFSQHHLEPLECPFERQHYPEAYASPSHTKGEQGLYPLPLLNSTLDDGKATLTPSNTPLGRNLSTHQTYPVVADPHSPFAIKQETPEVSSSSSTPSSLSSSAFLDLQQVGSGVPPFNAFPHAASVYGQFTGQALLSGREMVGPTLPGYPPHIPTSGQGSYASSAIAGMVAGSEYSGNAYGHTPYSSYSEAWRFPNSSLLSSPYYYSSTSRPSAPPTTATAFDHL

[16] = PAX5 activity inhibitors, dose response, selectivity assay for PAX8 inhibitor project, cell-based, plate reader, dry powder samples (AID 743047); assay type: functional;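 note: HEK293 cells carrying a Pax5 driven CD19 promoter luciferase reporter; potency of inhibitors that lower reporter luminescence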
[17] = test system: BJ; experiment: cytotoxicity toward BJ-TERT fibroblasts, dose response, cell-based, RAS-independent, luminescence (AID 1933); assay type: functional; conditions: Homo sapiens
[18] = inhibitors of SNCA 5'UTR-driven reporter translation, confirmation, H4 neuroglioma cells, luminescence (AID 1988); assay type: functional, cell-based
[19] = test system: BJ; experiment: cytotoxicity toward Ras-transformed BJeLR fibroblasts, dose response, cell-based, alamar blue fluorescence, cherrypicked samples (AID 2631); assay type: functional; conditions: Homo sapiens;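 note: confirmatory dose-response assay in RAS-dependent BJ fibroblasts engineered with TERT, LT and ST, with cytotoxicity read by fluorescence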
[20] = A2780 ovarian cancer cell cytotoxicity, dose response, cytotoxicity control, plate reader, dry powder samples (AID 743046); assay type: functional, cell-based
[21] = NIH:OVCAR-3 ovarian cancer cell cytotoxicity, dose response, PAX8 inhibitor project, plate reader, dry powder samples (AID 743044); assay type: functional, cell-based
[22] = cytotoxicity in COV362 ovarian cancer cells, dose response, cytotoxicity control for PAX8 inhibitor project, cell-based, plate reader, dry powder, SA12 (AID 743144); assay type: functional
[23] = biological target: Transthyretin (Homo sapiens, UniProt P02766); experiment: Luminescence-based cell-based high throughput dose response assay to identify activators of Transthyretin (TTR) transcription.; assay type: functional
[24] = Jurkat T cell cytotoxicity, dose response, cytotoxicity control for P. falciparum gametocyte viability project, luminescence (AID 1117277); assay type: functional, cell-based;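 note: potency reflects loss of cellular ATP meaning fewer viable cells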
[25] = P. falciparum late gametocyte killing, dose response, luminescence (AID 1117278); assay type: functional, cell-based;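 note: gametocytes exposed to compound for 24 hours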
[26] = biological target: Glutathione-S-transferase (Schistosoma japonicum, UniProt Q26513); experiment: biotin-GST/anti-GST TR-FRET signal inhibitors, dose response, artefact control for Vif-APOBEC3G degradation inhibitor project, biochemical (AID 1117362); assay type: functional
Glutathione-S-transferase, sequence (Q26513 whole entry): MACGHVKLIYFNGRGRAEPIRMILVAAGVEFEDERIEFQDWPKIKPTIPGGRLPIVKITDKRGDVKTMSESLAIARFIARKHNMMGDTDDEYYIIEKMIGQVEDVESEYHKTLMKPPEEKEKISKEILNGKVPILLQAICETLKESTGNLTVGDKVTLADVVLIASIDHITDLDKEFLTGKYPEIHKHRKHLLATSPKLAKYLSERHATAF

[27] = test system: Vero; experiment: Vero cell cytotoxicity, cytotoxicity control for flavivirus capping enzyme inhibitors (AID 588742); assay type: functional; conditions: Chlorocebus sabaeus
[28] = biological target: Ephrin type-A receptor 4 (Mus musculus, UniProt Q03137); experiment: inhibitors of EphA4 binding to KYL peptide, primary screen, biochemical, colorimetric, mouse EphA4 (AID 689); assay type: functional
Ephrin type-A receptor 4, sequence (Q03137 whole entry): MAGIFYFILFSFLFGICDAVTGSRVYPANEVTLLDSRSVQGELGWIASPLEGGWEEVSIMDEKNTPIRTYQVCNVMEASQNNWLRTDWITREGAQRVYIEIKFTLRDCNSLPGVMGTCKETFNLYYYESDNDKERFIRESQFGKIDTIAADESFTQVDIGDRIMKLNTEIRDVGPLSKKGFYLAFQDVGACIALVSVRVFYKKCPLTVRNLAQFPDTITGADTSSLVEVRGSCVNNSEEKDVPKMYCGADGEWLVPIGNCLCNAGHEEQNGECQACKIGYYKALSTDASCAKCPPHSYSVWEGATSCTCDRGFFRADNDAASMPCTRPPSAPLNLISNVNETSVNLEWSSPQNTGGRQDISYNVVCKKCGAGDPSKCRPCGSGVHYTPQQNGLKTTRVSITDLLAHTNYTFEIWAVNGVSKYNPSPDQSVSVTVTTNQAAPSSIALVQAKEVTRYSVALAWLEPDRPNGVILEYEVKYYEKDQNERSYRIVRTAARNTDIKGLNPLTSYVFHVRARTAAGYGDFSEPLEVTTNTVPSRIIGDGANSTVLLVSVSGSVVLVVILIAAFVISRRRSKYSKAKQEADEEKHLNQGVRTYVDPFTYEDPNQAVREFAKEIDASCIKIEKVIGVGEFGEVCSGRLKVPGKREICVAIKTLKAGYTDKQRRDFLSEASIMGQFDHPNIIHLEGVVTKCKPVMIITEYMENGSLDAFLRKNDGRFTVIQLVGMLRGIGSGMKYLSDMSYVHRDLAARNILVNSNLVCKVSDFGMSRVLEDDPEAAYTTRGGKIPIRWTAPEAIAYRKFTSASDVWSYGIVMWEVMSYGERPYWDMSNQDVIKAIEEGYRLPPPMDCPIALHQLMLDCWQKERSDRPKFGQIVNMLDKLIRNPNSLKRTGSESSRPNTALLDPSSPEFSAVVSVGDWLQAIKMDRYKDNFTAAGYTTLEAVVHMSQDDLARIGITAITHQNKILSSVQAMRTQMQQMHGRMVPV

[29] = biological target: T1, Trace amine-associated receptor 1 (Homo sapiens, UniProt Q96RJ0); experiment: Fluorescence-based cell-based high throughput dose response assay to identify agonists of the human trace amine associated receptor 1 (TAAR1).; assay type: functional
T1 sequence (Q96RJ0 whole entry): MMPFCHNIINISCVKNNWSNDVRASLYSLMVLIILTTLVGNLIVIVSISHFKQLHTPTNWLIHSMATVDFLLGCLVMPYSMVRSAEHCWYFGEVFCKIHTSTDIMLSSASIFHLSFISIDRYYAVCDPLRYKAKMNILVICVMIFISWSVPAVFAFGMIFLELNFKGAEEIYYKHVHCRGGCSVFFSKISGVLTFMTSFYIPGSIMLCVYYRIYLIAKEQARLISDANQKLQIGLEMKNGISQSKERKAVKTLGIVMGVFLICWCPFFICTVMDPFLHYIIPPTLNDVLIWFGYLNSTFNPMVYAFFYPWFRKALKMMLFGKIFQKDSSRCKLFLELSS

[30] = biological target: T2, Mannose-6-phosphate isomerase (Homo sapiens, UniProt P34949); experiment: human PMI inhibitors, high substrate, primary screen, biochemical, fluorescence intensity, high mannose 6-phosphate (AID 1220)
T2 sequence (P34949 whole entry): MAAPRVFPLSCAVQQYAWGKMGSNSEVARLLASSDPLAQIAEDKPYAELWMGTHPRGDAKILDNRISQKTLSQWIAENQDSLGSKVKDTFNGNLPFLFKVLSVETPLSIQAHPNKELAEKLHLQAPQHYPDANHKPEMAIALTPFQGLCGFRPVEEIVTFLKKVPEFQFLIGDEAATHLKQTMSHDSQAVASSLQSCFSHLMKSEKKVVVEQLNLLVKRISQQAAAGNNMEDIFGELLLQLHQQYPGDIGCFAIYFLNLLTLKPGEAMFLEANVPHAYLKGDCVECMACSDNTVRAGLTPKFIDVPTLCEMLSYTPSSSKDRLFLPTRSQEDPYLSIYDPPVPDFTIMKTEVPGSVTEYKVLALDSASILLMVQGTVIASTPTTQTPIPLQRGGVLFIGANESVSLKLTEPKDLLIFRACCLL

[31] = biological target: T1, Trace amine-associated receptor 1; experiment: Counterscreen for agonists of the human trace amine associated receptor 1 (hTAAR1): Fluorescence-based cell-based high throughput dose response assay to identify hTAAR1 agonist that also desensitize TAAR1 receptor response.; assay type: functional
[32] = cells; assay type: functional, cell-based; remark: listed apart in the source
[33] = biological target: E3 ubiquitin-protein ligase Mdm2 (Homo sapiens, UniProt Q00987); experiment: enhancers of MDM2-luciferase reporter signal, concentration-effect titration, project on inhibitors of MDM2 ubiquitin ligase, cellular assay, luminescent readout, 384-well plate format (AID 1394); assay type: functional;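 note: MDM2 E3 inhibitors raise luminescence so EC50 is for signal enhancement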
E3 ubiquitin-protein ligase Mdm2, sequence (Q00987 whole entry): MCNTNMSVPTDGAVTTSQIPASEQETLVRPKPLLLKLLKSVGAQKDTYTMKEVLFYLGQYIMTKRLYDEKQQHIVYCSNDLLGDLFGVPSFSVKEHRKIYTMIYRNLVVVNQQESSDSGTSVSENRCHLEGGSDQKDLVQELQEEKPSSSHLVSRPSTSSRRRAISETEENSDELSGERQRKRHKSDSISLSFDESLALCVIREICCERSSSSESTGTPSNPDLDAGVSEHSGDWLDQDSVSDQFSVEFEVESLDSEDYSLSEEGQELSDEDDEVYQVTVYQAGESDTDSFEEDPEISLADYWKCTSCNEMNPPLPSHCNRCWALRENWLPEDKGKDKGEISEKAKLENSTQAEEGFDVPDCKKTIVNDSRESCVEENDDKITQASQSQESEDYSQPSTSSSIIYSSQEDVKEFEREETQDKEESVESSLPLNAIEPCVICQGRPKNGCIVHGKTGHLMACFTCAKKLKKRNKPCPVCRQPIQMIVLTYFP

[34] = cells; assay type: functional, cell-based; remark: listed apart in the source

Cc1cccc(C)c1NS(=O)(=O)c1ccc(-c2cnc(C3CC3)o2)cc1
EC50 [1]: 0.229 µM (active)
AC50 [2]: 5.36 µM (active)
EC50 [3]: > 120 µM (not active)
EC50 [4]: 0.113 µM (active)
AC50 [5]: 0.366 µM (active)
EC50 [6]: < 0.1 µM (active)
EC50 [7]: 0.751 µM (inconclusive)
EC50 [8]: 60.4 µM (inconclusive)
AC50 [9]: 22.4 µM (active)
AC50 [10]: 5.04 µM (active)
AC50 [11]: 0.329 µM (active)
EC50 [12]: 0.208 µM (active)
AC50 [13]: 0.973 µM (active)
AC50 [14]: 0.651 µM (active)
AC50 [15]: 1.74 µM (active)
AC50 [16]: 4.58 µM (active)
EC50 [17]: 0.158 µM (active)
EC50 [18]: < 0.1 µM (active)
EC50 [19]: < 0.104 µM (active)
AC50 [20]: 2.06 µM (active)
AC50 [21]: 12.1 µM (active)
AC50 [22]: 0.401 µM (active)

Cn1cc(C2CC(c3ccccc3)=NN2C(=O)c2ccccc2)c2ccccc21 (centres undefined)
EC50 [23]: > 167 µM (inactive)

OCC1(Cc2ccccc2)CCN(Cc2cnc(-c3ccc(Cl)cc3)nc2)CC1
IC50 [24]: > 83.3 µM (inactive)
IC50 [25]: > 109 µM (inactive)

Cc1nn(-c2ccccn2)c2c1C(=O)C(Br)CC2 (centres undefined)
IC50 [26]: 65.6 µM (active)
CC50 [27]: > 40 µM (active)

Cc1cc(C)c2nc(N3CCCN(C(=O)c4ccco4)CC3)c(C#N)cc2c1
IC50 [28]: 16.6 µM (active)

O=[N+]([O-])c1ccc2c(c1NCCc1ccccc1)=NC1(CCCCC1)[N+]=2[O-]
EC50 [29]: 3.09 µM (active)
IC50 [30]: > 50 µM (not active)
IC50 [31]: 8.86 µM (active)
EC50 [32]: > 29.9 µM (inactive)
EC50 [33]: 393 µM (not active)
IC50 [34]: > 29.9 µM (inactive)
